The record followed here is US9695155B2, “Herbicidal substituted pyrimidinyloxy benzene compounds” (E. I. DU PONT DE NEMOURS AND COMPANY, priority 2013, dated 2017).

Common to all, as to test: Test E postemergence
One test has as its system sandbur. The test is classed as in vivo, Cenchrus echinatus. A digest of the protocol: (§1)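 Response was scored visually on a 0-100 scale (100 = complete control) versus controls after 14 to 21 days in the greenhouse. Test chemicals, formulated with surfactant in a non-phytotoxic solvent mixture, had been applied preemergence to seeds in silt loam soil or postemergence to 1- to 4-leaf plants in potting medium.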

A further test concerns Brazilian crabgrass. The test is classed as in vivo, Digitaria horizontalis. The method in brief: as §1
Test [1] deals with waterhemp_RES2 (ALS & HPPD resistant common waterhemp). The test is classed as in vivo, Amaranthus rudis. A digest of the protocol: as §1
A further test concerns waterhemp. The format is in vivo, Amaranthus rudis. The method in brief: as §1
Test [2] relates to waterhemp_RES1 (ALS & Triazine resistant common waterhemp). The format is in vivo, Amaranthus rudis. The method in brief:
as §1

[3] abbreviates: Postemergence, 31 g ai/ha, scale 0 to 100.
Where [4] appears, read: Postemergence, 62 g ai/ha, scale 0 to 100.
Where [5] appears, read: Postemergence, 125 g ai/ha, scale 0 to 100.
The mark [6] stands for this setting: postemergence, 16 g ai/ha, scale 0 to 100, 0 no effect, 100 complete control.
[7] abbreviates: postemergence, 8 g ai/ha, scale 0 to 100, 0 no effect, 100 complete control.

With `Clc1cnc(Oc2cccc(Cl)c2-n2cc(I)cn2)nc1` [Compound 181], the “Plant response rating, Sandbur” value was determined as 15 with sandbur (setting [3]), 10 in the test on sandbur (setting [4]), 20 in the test on sandbur (setting [5]) and 5 in the test on sandbur (setting [6]). The “Plant response rating, Crabgrass, Brazil” value in the test on Brazilian crabgrass (setting [3]) is recorded as 20; in the test on Brazilian crabgrass (setting [4]) it was 30; in the test on Brazilian crabgrass (setting [5]) it was 30; in the test with Brazilian crabgrass (setting [6]), 20. Moreover, the “Plant response rating, Waterhemp_RES2” value was found to be 95 in test [1] (setting [3]), 98 in test [1] (setting [4]), 100 in test [1] (setting [5]) and 85 in test [1] (setting [6]). Further, the “Plant response rating, Waterhemp” value is 95 in the test on waterhemp (setting [3]), 95 in the test on waterhemp (setting [4]), 98 in the test on waterhemp (setting [5]) and 65 in the test on waterhemp (setting [6]). In addition, the “Plant response rating, Waterhemp_RES1” value is listed as 95 in test [2] (setting [3]), 90 in test [2] (setting [4]), 95 in test [2] (setting [5]) and 90 in test [2] (setting [6]).
As to `Clc1cnc(Oc2ccccc2-n2cc(Br)nn2)nc1` [Compound 223], the “Plant response rating, Sandbur” value in the test with sandbur (setting [3]), in the test with sandbur (setting [4]), in the test on sandbur (setting [5]), in the test on sandbur (setting [7]) and with sandbur (setting [6]) was 0 throughout. In addition, the “Plant response rating, Crabgrass, Brazil” value with Brazilian crabgrass (setting [3]) amounted to 10; in the test with Brazilian crabgrass (setting [4]) it was 10; with Brazilian crabgrass (setting [5]), 20; with Brazilian crabgrass (setting [7]), 0; in the test with Brazilian crabgrass (setting [6]) it was 0. The “Plant response rating, Waterhemp_RES2” value is 80 in test [1] (setting [3]), 80 in test [1] (setting [4]), 95 in test [1] (setting [5]) and 75 in test [1] (setting [6]). The “Plant response rating, Waterhemp” value with waterhemp (setting [3]) is 70; in the test with waterhemp (setting [4]), 85; in the test with waterhemp (setting [5]) it was 98; with waterhemp (setting [7]), 60; in the test on waterhemp (setting [6]), 50. Besides, the “Plant response rating, Waterhemp_RES1” value in test [2] (setting [3]) is given as 80; in test [2] (setting [4]), 70; in test [2] (setting [5]), 95; in test [2] (setting [7]), 30; in test [2] (setting [6]), 60.
As to `FC(F)(F)c1cnn(-c2c(Br)cccc2Oc2ncc(Cl)cn2)c1` [Compound 191], the “Plant response rating, Sandbur” value with sandbur (setting [3]) came out at 0; with sandbur (setting [4]), 0; in the test with sandbur (setting [5]), 10; in the test with sandbur (setting [7]), 0; with sandbur (setting [6]) it was 0. The “Plant response rating, Crabgrass, Brazil” value with Brazilian crabgrass (setting [3]) was found to be 10; in the test with Brazilian crabgrass (setting [4]), 10; in the test with Brazilian crabgrass (setting [5]) it was 20; in the test on Brazilian crabgrass (setting [7]), 10; in the test with Brazilian crabgrass (setting [6]), 10. Also, the “Plant response rating, Waterhemp_RES2” value in test [1] (setting [3]) came out at 95; in test [1] (setting [4]) it was 95; in test [1] (setting [5]), 100; in test [1] (setting [6]), 90. The “Plant response rating, Waterhemp” value in the test with waterhemp (setting [3]) worked out at 90; with waterhemp (setting [4]), 90; in the test on waterhemp (setting [5]), 95; in the test with waterhemp (setting [7]), 60; with waterhemp (setting [6]), 70. Further, the “Plant response rating, Waterhemp_RES1” value in test [2] (setting [3]) is given as 80; in test [2] (setting [4]), 90; in test [2] (setting [5]), 95; in test [2] (setting [7]) it was 50; in test [2] (setting [6]) it was 70.
